US11806366B2, “Peptides and combination of peptides for use in immunotherapy against epithelial ovarian cancer and other cancers” (Immatics Biotechnologies GmbH, priority 2015, dated 2023)

What follows are substances tested on CD8 T cells from blood of healthy donors (assay: Immunogenicity analysis of HLA class I ligands: aAPC priming of CD8 T cells, MHC-multimer staining). Conditions: immunogenicity of MUC16/CA-125 ligands, HLA allotype as in Table 11.
Assay type: cell-based, human
Experimental: Priming of peptide specific cytotoxic lymphocytes (CTLs) was conducted using an established protocol involving artificial antigen presenting cells (aAPCs) (30). aAPCs consisted of streptavidin-coated polystyrene beads (5.6 μm in diameter; Bangs Laboratories, Fishers, Ind.). […] T cells were isolated from whole blood of healthy donors using a CD8 magnetic cell isolation kit (Miltenyi). One million T-cells per well were cultured in 96 well plates (Corning, Corning, N.Y., USA) and stimulated with the same number of loaded aAPCs in the presence of 5 ng/ml IL-12 (PromoCell, Heidelberg, Germany). T cells were stimulated 3 times in total with weekly stimulation interval. 40 U/ml IL-2 was added 2 days subsequent to each stimulation. T-cell priming was assessed by MHC-multimer staining one week after the last stimulation round.
For the applicability of peptide vaccines immunogenicity is a major imperative. In order to evaluate the immunogenic potential of the identified HLA ligands the inventors used a T-cell priming protocol involving artificial antigen presenting cells and T cells isolated from blood of healthy donors. […] This nearly 80% recognition rate verifies the presence of naïve MUC16 recognizing T cells in the human population. Similar results have been obtained for other TOP100 antigens (e.g. IDO1, LGALS1).

Substance | positive/tested donors
7 (DALVLKTV; listed as Homo sapiens) [compound 7] | 1/3
12 (EVISSRGTSM; listed as Homo sapiens) [compound 12] | 1/3
34 (LPHSEITTL; listed as Homo sapiens) [compound 34] | 0/2
10 (ERSPVIQTL; listed as Homo sapiens) [compound 10] | 1/2
62 (STSQEIHSATK; listed as Homo sapiens) [compound 62] | 2/6
53 (SPSKAFASL; listed as Homo sapiens) [compound 53] | 2/2
50 (SPQNLRNTL; listed as Homo sapiens) [compound 50] | 1/1
13 (EVITSSRTTI; listed as Homo sapiens) [compound 13] | 1/1
8 (DPYKATSAV; listed as Homo sapiens) [compound 8] | 3/3
18 (FQRQGQTAL; listed as Homo sapiens) [compound 18] | 1/6
72 (TPGNRAISL; listed as Homo sapiens) [compound 72] | 2/2
48 (SPHPVTALL; listed as Homo sapiens) [compound 48] | 0/1
2 (STETSTVLY; listed as Homo sapiens) [compound 2] | 0/2
547 (IITEVITRL; listed as Homo sapiens) [compound 547] | 3/10
5 (AVTNVRTSI; listed as Homo sapiens) [compound 5] | 1/3
23 (GTSGTPVSK; listed as Homo sapiens) [compound 23] | 0/5
549 (TYSEKTTLF; listed as Homo sapiens) [compound 549] | 2/2
56 (SQGFSHSQM; listed as Homo sapiens) [compound 56] | 4/5
548 (KMISAIPTL; listed as Homo sapiens) [compound 548] | 4/6
77 (VPRSAATTL; listed as Homo sapiens) [compound 77] | 1/2
14 (EVTSSGRTSI; listed as Homo sapiens) [compound 14] | 2/3
63 (SVLADLVTTK; listed as Homo sapiens) [compound 63] | 0/1
11 (ETILTFHAF; listed as Homo sapiens) [compound 11] | 2/2
